The structures appear in SMILES notation. The source made the active and inactive calls. No rule for the calls is given here.

Four compounds from PubChem BioAssay AID1259407 (Chemical Carcinogenesis Research Information System (CCRIS), 2018) can be followed below.

This data set relates to CCRIS mutagenicity, Ames/micronucleus/aberration tests. As to the kind of experiment: CCRIS mutagenicity studies.
[1] abbreviates: Test System: AMES SALMONELLA TYPHIMURIUM, Strain/Indicator: TA97, Metabolic Activation: NONE, Method: PREINCUBATION
Where [2] appears, read: Test System: AMES SALMONELLA TYPHIMURIUM, Strain/Indicator: TA97, Metabolic Activation: RAT, LIVER, S-9, AROCLOR 1254 (10%), Method: PREINCUBATION
Where [3] appears, read: Test System: AMES SALMONELLA TYPHIMURIUM, Strain/Indicator: TA97, Metabolic Activation: RAT, LIVER, S-9, AROCLOR 1254 (30%), Method: PREINCUBATION
Setting [4] is: Test System: AMES SALMONELLA TYPHIMURIUM, Strain/Indicator: TA98, Metabolic Activation: NONE, Method: PREINCUBATION
Setting [5] is: Test System: AMES SALMONELLA TYPHIMURIUM, Strain/Indicator: TA98, Metabolic Activation: RAT, LIVER, S-9, AROCLOR 1254 (10%), Method: PREINCUBATION
The mark [6] stands for this setting: Test System: AMES SALMONELLA TYPHIMURIUM, Strain/Indicator: TA98, Metabolic Activation: RAT, LIVER, S-9, AROCLOR 1254 (30%), Method: PREINCUBATION
The mark [7] stands for this setting: Test System: AMES SALMONELLA TYPHIMURIUM, Strain/Indicator: TA100, Metabolic Activation: HAMSTER, LIVER, S-9, AROCLOR 1254 (10%), Method: PREINCUBATION
The mark [8] stands for this setting: Test System: AMES SALMONELLA TYPHIMURIUM, Strain/Indicator: TA100, Metabolic Activation: HAMSTER, LIVER, S-9, AROCLOR 1254 (30%), Method: PREINCUBATION
Setting [9] is: Test System: AMES SALMONELLA TYPHIMURIUM, Strain/Indicator: TA100, Metabolic Activation: NONE, Method: PREINCUBATION
[10] abbreviates: Test System: AMES SALMONELLA TYPHIMURIUM, Strain/Indicator: TA100, Metabolic Activation: RAT, LIVER, S-9, AROCLOR 1254 (10%), Method: PREINCUBATION
Where [11] appears, read: Test System: AMES SALMONELLA TYPHIMURIUM, Strain/Indicator: TA100, Metabolic Activation: RAT, LIVER, S-9, AROCLOR 1254 (30%), Method: PREINCUBATION
The mark [12] stands for this setting: Test System: AMES SALMONELLA TYPHIMURIUM, Strain/Indicator: TA1535, Metabolic Activation: HAMSTER, LIVER, S-9, AROCLOR 1254 (10%), Method: PREINCUBATION
Where [13] appears, read: Test System: AMES SALMONELLA TYPHIMURIUM, Strain/Indicator: TA1535, Metabolic Activation: HAMSTER, LIVER, S-9, AROCLOR 1254 (30%), Method: PREINCUBATION
The mark [14] stands for this setting: Test System: AMES SALMONELLA TYPHIMURIUM, Strain/Indicator: TA1535, Metabolic Activation: NONE, Method: PREINCUBATION
The mark [15] stands for this setting: Test System: AMES SALMONELLA TYPHIMURIUM, Strain/Indicator: TA1535, Metabolic Activation: RAT, LIVER, S-9, AROCLOR 1254 (10%), Method: PREINCUBATION
Setting [16] is: Test System: AMES SALMONELLA TYPHIMURIUM, Strain/Indicator: TA1535, Metabolic Activation: RAT, LIVER, S-9, AROCLOR 1254 (30%), Method: PREINCUBATION
The mark [17] stands for this setting: Test System: AMES SALMONELLA TYPHIMURIUM, Strain/Indicator: TA97, Metabolic Activation: HAMSTER, LIVER, S-9, AROCLOR 1254 (10 OR 30%), Method: PREINCUBATION
Setting [18] is: Test System: AMES SALMONELLA TYPHIMURIUM, Strain/Indicator: TA98, Metabolic Activation: HAMSTER, LIVER, S-9, AROCLOR 1254 (10 OR 30%), Method: PREINCUBATION

On to `CCN(C(=O)N(CC)c1ccccc1)c1ccccc1`, for which the mutagenic call (Test System: AMES SALMONELLA TYPHIMURIUM, Strain/Indicator: TA97, Metabolic Activation: HAMSTER, LIVER, S-9, AROCLOR 1254 (10%), Method: PREINCUBATION) is “inactive; negative”; the mutagenic call (Test System: AMES SALMONELLA TYPHIMURIUM, Strain/Indicator: TA97, Metabolic Activation: HAMSTER, LIVER, S-9, AROCLOR 1254 (30%), Method: PREINCUBATION) was “inactive; negative”; the mutagenic call under setting [1] was “inactive; negative”; the mutagenic call under setting [2] is “inactive; negative”; the mutagenic call under setting [3] was “inactive; negative”; the mutagenic call (Test System: AMES SALMONELLA TYPHIMURIUM, Strain/Indicator: TA98, Metabolic Activation: HAMSTER, LIVER, S-9, AROCLOR 1254 (10%), Method: PREINCUBATION) was “inactive; negative”. The mutagenic call runs as follows: (Test System: AMES SALMONELLA TYPHIMURIUM, Strain/Indicator: TA98, Metabolic Activation: HAMSTER, LIVER, S-9, AROCLOR 1254 (30%), Method: PREINCUBATION) “inactive; negative”; under setting [4], “inactive; negative”; under setting [5], “inactive; negative”; under setting [6], “inactive; negative”; under setting [7], “inactive; negative”; under setting [8], “inactive; negative”. In addition, the mutagenic call under setting [9] was “inactive; negative”; the mutagenic call under setting [10] is “inactive; negative”; the mutagenic call under setting [11] is “inactive; negative”; the mutagenic call under setting [12] was “inactive; negative”; the mutagenic call under setting [13] was “inactive; negative”; the mutagenic call under setting [14] is “inactive; negative”. Besides, the mutagenic call was “inactive; negative” under setting [15] and “inactive; negative” under setting [16].
As for `Nc1ccccc1C(=O)OCCc1ccccc1`, the mutagenic call was “inactive; negative” under setting [17]; “inactive; negative” under setting [1]; “inactive; negative” (Test System: AMES SALMONELLA TYPHIMURIUM, Strain/Indicator: TA97, Metabolic Activation: RAT, LIVER, S-9, AROCLOR 1254 (10 OR 30%), Method: PREINCUBATION); “inactive; negative” under setting [18]; “inactive; negative” under setting [4]; “inactive; negative” (Test System: AMES SALMONELLA TYPHIMURIUM, Strain/Indicator: TA98, Metabolic Activation: RAT, LIVER, S-9, AROCLOR 1254 (10 OR 30%), Method: PREINCUBATION). In addition, the mutagenic call runs as follows: (Test System: AMES SALMONELLA TYPHIMURIUM, Strain/Indicator: TA100, Metabolic Activation: HAMSTER, LIVER, S-9, AROCLOR 1254 (10 OR 30%), Method: PREINCUBATION) “inactive; negative”; under setting [9], “inactive; negative”; (Test System: AMES SALMONELLA TYPHIMURIUM, Strain/Indicator: TA100, Metabolic Activation: RAT, LIVER, S-9, AROCLOR 1254 (10 OR 30%), Method: PREINCUBATION) “inactive; negative”; (Test System: AMES SALMONELLA TYPHIMURIUM, Strain/Indicator: TA1535, Metabolic Activation: HAMSTER, LIVER, S-9, AROCLOR 1254 (10 OR 30%), Method: PREINCUBATION) “inactive; negative”; under setting [14], “inactive; negative”; (Test System: AMES SALMONELLA TYPHIMURIUM, Strain/Indicator: TA1535, Metabolic Activation: RAT, LIVER, S-9, AROCLOR 1254 (10 OR 30%), Method: PREINCUBATION) “inactive; negative”.
For the compound `Clc1cccc(Cl)c1Cl`, the mutagenic call (Test System: AMES SALMONELLA TYPHIMURIUM, Strain/Indicator: TA98, Metabolic Activation: HAMSTER, LIVER, S-9, AROCLOR 1254, Method: PREINCUBATION) is “inactive; negative”; the mutagenic call under setting [4] was “inactive; negative”; the mutagenic call (Test System: AMES SALMONELLA TYPHIMURIUM, Strain/Indicator: TA98, Metabolic Activation: RAT, LIVER, S-9, AROCLOR 1254, Method: PREINCUBATION) was “inactive; negative”; the mutagenic call (Test System: AMES SALMONELLA TYPHIMURIUM, Strain/Indicator: TA100, Metabolic Activation: HAMSTER, LIVER, S-9, AROCLOR 1254, Method: PREINCUBATION) is “inactive; negative”; the mutagenic call under setting [9] was “inactive; negative”; the mutagenic call (Test System: AMES SALMONELLA TYPHIMURIUM, Strain/Indicator: TA100, Metabolic Activation: RAT, LIVER, S-9, AROCLOR 1254, Method: PREINCUBATION) is “inactive; negative”. Further, the mutagenic call reads like this: (Test System: AMES SALMONELLA TYPHIMURIUM, Strain/Indicator: TA1535, Metabolic Activation: HAMSTER, LIVER, S-9, AROCLOR 1254, Method: PREINCUBATION) “inactive; negative”; under setting [14], “inactive; negative”; (Test System: AMES SALMONELLA TYPHIMURIUM, Strain/Indicator: TA1535, Metabolic Activation: RAT, LIVER, S-9, AROCLOR 1254, Method: PREINCUBATION) “inactive; negative”; (Test System: AMES SALMONELLA TYPHIMURIUM, Strain/Indicator: TA1537, Metabolic Activation: HAMSTER, LIVER, S-9, AROCLOR 1254, Method: PREINCUBATION) “inactive; negative”; (Test System: AMES SALMONELLA TYPHIMURIUM, Strain/Indicator: TA1537, Metabolic Activation: NONE, Method: PREINCUBATION) “inactive; negative”; (Test System: AMES SALMONELLA TYPHIMURIUM, Strain/Indicator: TA1537, Metabolic Activation: RAT, LIVER, S-9, AROCLOR 1254, Method: PREINCUBATION) “inactive; negative”.
As to `O.O.O.O.O.O.O=[N+]([O-])[O-].O=[N+]([O-])[O-].O=[N+]([O-])[O-].[La+3]`, the mutagenic call under setting [17] is “inactive; negative”; the mutagenic call under setting [1] was “inactive; negative”; the mutagenic call under setting [2] is “inactive; negative”; the mutagenic call under setting [3] is “inactive; negative”; the mutagenic call under setting [18] is “inactive; negative”; the mutagenic call under setting [4] was “inactive; negative”. Besides, the mutagenic call reads like this: under setting [5], “inactive; negative”; under setting [6], “inactive; negative”; under setting [7], “inactive; negative”; under setting [8], “inactive; negative”; under setting [9], “inactive; negative”; under setting [10], “inactive; negative”. Besides, the mutagenic call runs as follows: under setting [11], “inactive; negative”; under setting [12], “inactive; negative”; under setting [13], “inactive; negative”; under setting [14], “inactive; negative”; under setting [15], “inactive; negative”; under setting [16], “inactive; negative”. Besides, under “Test System: UDS HUMAN LYMPHOCYTES, Strain/Indicator: THYMIDINE INCORPORATION, Metabolic Activation: NONE, Method: LIQUID SCINTILLATION COUNTING”, the mutagenic call was “active; positive”.
